Data from US9834579B2, “Crystalline forms of s-acetyl glutathione, their preparations and uses in pharmaceutical and nutraceutical formulations” (Gnosis S.p.A., priority 2013, dated 2017).

How the values were obtained:
[1] = accelerated stability test of solid forms at 50° C. for 6 months (European Pharmacopoeia); type: physicochemical; conditions: for GSH / GSSG / SAG / Unknown impurities (single) / Unknown impurities (total): % area
Protocol: The stability of the various solid forms was tested as described in the European Pharmacopoeia (EP), by conducting accelerated stability tests at 50° C. for 6 months.

[2] = dissolution rate in water; type: physicochemical; conditions: comparison of solid forms
[3] = powder density / apparent density; type: physicochemical; conditions: for Apparent density: product of the example after drying
[4] = flowability of the powders; type: physicochemical; conditions: comparison of crystalline forms
[5] = heat and mechanical stress, conversion of one polymorph to the other; type: physicochemical; conditions: heat and mechanical stresses
[6] = oral, seven healthy volunteers, doses of up to 3 g per dose; cited from earlier work
[7] = system: cell levels of GSH impoverished by viral infections; conditions: cells impoverished by viral infections, compared with GSH; cited from earlier work
human tumour cell lines = conditions: some human tumour cell lines in vitro; cited from earlier work
[8] = compared with GSH; cited from earlier work
[9] = system: fibroblasts originating from individuals suffering from a genetic glutathione synthetase deficiency; conditions: addition to fibroblast cultures; cited from earlier work

SMILES | SAG - assay value ([1]; 0 months) [%] | GSH ([1]; 0 months) [%] | GSSG ([1]; 0 months) [%] | SAG ([1]; 0 months) [%] | Unknown impurities (single) ([1]; 0 months) [%] | Unknown impurities (total) ([1]; 0 months) [%] | SAG - assay value ([1]; 1.5 months) [%] | GSH ([1]; 1.5 months) [%] | GSSG ([1]; 1.5 months) [%] | SAG ([1]; 1.5 months) [%] | Unknown impurities (single) ([1]; 1.5 months) [%] | Unknown impurities (total) ([1]; 1.5 months) [%] | SAG - assay value ([1]; 3 months) [%] | GSH ([1]; 3 months) [%] | GSSG ([1]; 3 months) [%] | SAG ([1]; 3 months) [%] | Unknown impurities (single) ([1]; 3 months) [%] | Unknown impurities (total) ([1]; 3 months) [%] | SAG - assay value ([1]; 4.5 months) [%] | GSH ([1]; 4.5 months) [%] | also measured
CC(=O)SC[C@H](NC(=O)CC[C@H](N)C(=O)O)C(=O)NCC(=O)O [Amorphous, S-acetyl glutathione] | 96.5 | 1.0 | 2.5 | 95.1 | 0.4 | 1.4 | 94.9 | 1.6 | 2.5 | 94.6 | 0.9 | 1.9 | 92.4 | 2.4 | 2.8 | 91.3 | 1.2 | 2.3 | 91.5 | 2.8 | GSSG ([1]; 4.5 months): 2.9%; SAG ([1]; 4.5 months): 90.4%; Unknown impurities (single) ([1]; 4.5 months): 1.3%; Unknown impurities (total) ([1]; 4.5 months): 2.7%; SAG - assay value ([1]; 6 months): 89.9%; GSH ([1]; 6 months): 2.5%; GSSG ([1]; 6 months): 3.9%; SAG ([1]; 6 months): 88.6%; Unknown impurities (single) ([1]; 6 months): 1.5%; Unknown impurities (total) ([1]; 6 months): 3.5%; stability of the solid form (comparison) ([1]; 6 months, data of Table 3): much less stable than the crystalline forms; dissolution rate ([2]; listed as amorphous form): dissolves more rapidly
CC(=O)SC[C@H](NC(=O)CC[C@H](N)C(=O)O)C(=O)NCC(=O)O [Example 3, S-acetyl glutathione] |  |  |  |  |  |  |  |  |  |  |  |  |  |  |  |  |  |  |  |  | Apparent density [3]: 0.35 g/mL
CC(=O)SC[C@H](NC(=O)CC[C@H](N)C(=O)O)C(=O)NCC(=O)O [Form A, S-acetyl glutathione] | 98.6 | 0.1 | 2.2 | 96.3 | 0.4 | 1.0 | 98.3 | 0.1 | 2.2 | 95.5 | 0.5 | 1.7 | 97.8 | 0.2 | 2.3 | 95.1 | 0.5 | 1.9 | 97.6 | 0.2 | flowability of the powder [4]: better flowability; conversion of one polymorph to the other [5]: not found; powder density [3]: 0.2 to 0.25 g/mL; Apparent density ([3]; listed as Example 1): 0.15 to 0.25 g/mL; GSSG ([1]; 4.5 months): 2.4%; SAG ([1]; 4.5 months): 94.7%; Unknown impurities (single) ([1]; 4.5 months): 0.7%; Unknown impurities (total) ([1]; 4.5 months): 2.0%; SAG - assay value ([1]; 6 months): 97.4%; GSH ([1]; 6 months): 0.3%; GSSG ([1]; 6 months): 2.4%; SAG ([1]; 6 months): 94.4%; Unknown impurities (single) ([1]; 6 months): 0.9%; Unknown impurities (total) ([1]; 6 months): 2.0%
CC(=O)SC[C@H](NC(=O)CC[C@H](N)C(=O)O)C(=O)NCC(=O)O [Form B, S-acetyl glutathione] | 99.3 | 0.2 | 1.1 | 97.7 | 0.2 | 0.8 | 99.1 | 0.3 | 1.2 | 97.1 | 0.5 | 0.9 | 98.7 | 0.7 | 0.8 | 96.7 | 0.7 | 1.1 | 98.3 | 0.9 | conversion of one polymorph to the other [5]: not found; powder density [3]: 0.4 g/mL; Apparent density ([3]; listed as Example 2): 0.25 to 0.40 g/mL; GSSG ([1]; 4.5 months): 1.1%; SAG ([1]; 4.5 months): 96.0%; Unknown impurities (single) ([1]; 4.5 months): 0.7%; Unknown impurities (total) ([1]; 4.5 months): 1.3%; SAG - assay value ([1]; 6 months): 98.1%; GSH ([1]; 6 months): 1.0%; GSSG ([1]; 6 months): 0.9%; SAG ([1]; 6 months): 95.7%; Unknown impurities (single) ([1]; 6 months): 0.8%; Unknown impurities (total) ([1]; 6 months): 2.0%; dissolution rate [2]: most rapid dissolution rate
N[C@@H](CCC(=O)N[C@@H](CS)C(=O)NCC(=O)O)C(=O)O [GSH, γ-L-glutamyl-L-cysteinylglycine] |  |  |  |  |  |  |  |  |  |  |  |  |  |  |  |  |  |  |  |  | increase in the blood levels of glutathione, cysteine and glutamate [6]: no significant increases
CC(=O)SC[C@H](NC(=O)CC[C@H](N)C(=O)O)C(=O)NCC(=O)O [SAG, S-acetyl glutathione] |  |  |  |  |  |  |  |  |  |  |  |  |  |  |  |  |  |  |  |  | replenishing the cell levels of GSH [7]: more effective than GSH; induction of apoptosis (non-GSH-dependent activity) (human tumour cell lines): induces apoptosis; stability in the plasma [8]: more stable in the plasma; replenishment of the intracellular level of GSH [9]: able to replenish the intracellular level of GSH effectively
